ChEMBL document CHEMBL1140730, “Validation of diacyl glycerolacyltransferase I as a novel target for the treatment of obesity and dyslipidemia using a potent and selective small molecule inhibitor” (J Med Chem, 2008)

Key:
[1] = biological target: T1, Diacylglycerol O-acyltransferase 1 (Mus musculus, UniProt Q9Z2A7); experiment: Inhibition of mouse recombinant DGAT1 expressed in Sf9 cells
T1 sequence (Q9Z2A7 whole entry): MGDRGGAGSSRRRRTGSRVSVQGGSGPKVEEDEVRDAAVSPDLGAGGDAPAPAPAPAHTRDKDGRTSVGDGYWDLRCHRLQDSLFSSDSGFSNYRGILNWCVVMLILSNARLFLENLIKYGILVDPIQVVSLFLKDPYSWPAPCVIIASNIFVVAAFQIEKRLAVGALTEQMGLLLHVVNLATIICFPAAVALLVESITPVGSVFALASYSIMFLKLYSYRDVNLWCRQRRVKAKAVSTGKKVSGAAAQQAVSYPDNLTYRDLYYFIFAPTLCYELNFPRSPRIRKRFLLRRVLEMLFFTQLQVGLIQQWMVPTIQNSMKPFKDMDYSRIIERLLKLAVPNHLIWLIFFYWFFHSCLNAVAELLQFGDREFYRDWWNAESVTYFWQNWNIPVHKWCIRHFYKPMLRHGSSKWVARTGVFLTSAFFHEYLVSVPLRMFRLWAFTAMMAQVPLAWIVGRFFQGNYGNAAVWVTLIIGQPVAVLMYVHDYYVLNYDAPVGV

[2] = biological target: T2, Diacylglycerol O-acyltransferase 1 (Homo sapiens, UniProt O75907); experiment: Inhibition of human recombinant DGAT1 expressed in Sf9 cells
T2 sequence (O75907 whole entry): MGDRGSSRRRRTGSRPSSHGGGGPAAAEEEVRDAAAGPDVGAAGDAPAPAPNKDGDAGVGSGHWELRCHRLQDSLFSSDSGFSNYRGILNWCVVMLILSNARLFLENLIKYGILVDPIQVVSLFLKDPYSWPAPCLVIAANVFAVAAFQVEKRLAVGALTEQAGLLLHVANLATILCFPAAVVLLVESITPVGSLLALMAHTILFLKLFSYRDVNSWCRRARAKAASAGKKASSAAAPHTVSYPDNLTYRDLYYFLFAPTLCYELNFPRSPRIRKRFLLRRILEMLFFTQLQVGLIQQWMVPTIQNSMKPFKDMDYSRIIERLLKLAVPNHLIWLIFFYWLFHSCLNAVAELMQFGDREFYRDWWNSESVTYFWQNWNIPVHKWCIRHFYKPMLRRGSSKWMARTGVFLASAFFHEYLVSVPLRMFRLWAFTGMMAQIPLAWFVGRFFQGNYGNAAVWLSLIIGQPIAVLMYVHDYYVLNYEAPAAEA

Compound: O=C(Nc1ccc(-c2ccc(C(=O)[C@@H]3CCC[C@H]3C(=O)O)cc2)cc1)Nc1ccccc1C(F)(F)F
- IC50 [1]: 16 nM

Compound: O=C(Nc1ccc(-c2ccc(C(=O)[C@@H]3CCC[C@H]3C(=O)O)cc2)cc1)Nc1cccc(C(F)(F)F)c1
- IC50 [1]: 17 nM

Compound: O=C(Nc1ccccc1)Nc1ccc(-c2ccc(C(=O)[C@@H]3CCC[C@@H]3C(=O)O)cc2)cc1
- IC50 [2]: 98 nM
